Measurements published in EP4361157A1, “FUSED TETRACYCLIC COMPOUND, PREPARATION METHOD THEREFOR AND APPLICATION THEREOF IN MEDICINE” (Jiangsu Hengrui Pharmaceuticals Co., Ltd., priority 2021, dated 2022).

Columns and labels:
AGS cells = test: Inhibition of ERK phosphorylation of AGS cells (HTRF method); assay type: cell-based; details: phosphorylated ERK/total ERK ratio, 1 h incubation
Protocol: AGS cells (Nanjing Cobioer, CBP60476) were cultured in RPMI1640 (Hyclone, SH30809.01) complete medium containing 10% fetal bovine serum. On the first day of the experiment, the AGS cells were seeded into a 96-well plate with complete medium at a density of 40,000 cells/well to form 190 µL of cell suspension per well. The plate was incubated overnight in a cell incubator at 37 °C with 5% CO2.
The next day, 10 µL of serially-diluted test compound prepared from the complete medium was added to each well. The final concentrations of the compound were 9 concentration points obtained by 5-fold serial dilution from 10 µM. A blank control containing 0.5% DMSO was set. The well plate was incubated in a cell incubator at 37 °C with 5% CO2 for 1 h. After completion of incubation, the 96-well cell culture plate was taken out, the medium was removed by pipetting, 200 µL PBS (Shanghai BasalMedia Technologies Co., Ltd., B320) was added to each well, and the cells were washed once. PBS was removed by pipetting, 50 µL of lysis buffer (Cisbio, 64KL1FDF) containing a blocking solution (blocking reagent, Cisbio, 64KB1AAC) was added to each well, and the well plate was lysed on a shaker for 40 min at room temperature with shaking. After lysis, the lysate was pipetted and mixed well, 16 µL of lysate was transferred to two HTRF 96-well assay plates (Cisbio, 66PL96100) per well, and then 4 µL of premixed phosphorylated ERK1/2 antibody solution (Cisbio, 64AERPEG) or 4 µL of premixed total ERK1/2 antibody solution (Cisbio, 64NRKPEG) was added to these two plates. The microplate was sealed with a sealing membrane, centrifuged for 1 min in a microplate centrifuge, and incubated overnight at room temperature in the dark. On the third day, the fluorescence values at an excitation wavelength of 337 nm and at emission wavelengths of 665 nm and 620 nm were read using an ENVISION multifunctional microplate reader (PerkinElmer, ENVISION).
Table 1. Inhibitory activity data for ERK phosphorylation of AGS cells

GP2d cells = test: Inhibition of 3D proliferation of GP2d cells (CellTiter-Glo 3D); assay type: cell-based; details: 120 h incubation
Protocol: GP2d cells (Nanjing Cobioer, CBP60010) were cultured in a complete medium, namely DMEM/high glucose medium (Hyclone, SH30243.01) containing 10% fetal bovine serum (Corning, 35-076-CV). On the first day of the experiment, GP2d cells were seeded into a 96-well low adsorption plate (Corning, CLS7007-24EA) with complete medium at a density of 1,000 cells/well to form 90 µL of cell suspension per well. The plate was centrifuged at 2,000 rpm for 5 min at room temperature and then incubated overnight in a cell incubator at 37 °C with 5% CO2.
The next day, 10 µL of serially-diluted test compound prepared from the complete medium was added to each well. The final concentrations of the compound of GP2d cells were 9 concentration points obtained by 3-fold serial dilution from 1 µM, and the final concentrations of the compound of AGS cells were 9 concentration points obtained by 3-fold serial dilution from 10 µM. A blank control containing 0.5% DMSO was set. The well plate was incubated in a cell incubator at 37 °C with 5% CO2 for 120 h. On the seventh day, the 96-well cell culture plate was taken out, 50 µL CellTiter-Glo® 3D reagent (Promega, G9682) was added into each well, the plate was shaken at room temperature for 25 min, pipetted and mixed well, 50 µL of the solution was transferred into a white impermeable 96-well plate (PE, 6005290), and the luminescence signal values were read using a multifunctional microplate reader (PerkinElmer, ENVISION).
Table 2. Inhibitory activity data for 3D proliferation of AGS and GP2d cells

Row | SMILES | IC50 (AGS cells; Homo sapiens, AGS) [nM] | IC50 (AGS cells) [nM] | IC50 (GP2d cells) [nM]
1 | Oc1cc(Cl)c(C(F)(F)F)c(-c2nc3c4c(nc(OC[C@@]56CCCN5C[C@H](F)C6)nc4c2F)N2C[C@H]4CC[C@H](N4)[C@H]2CO3)c1 [Example 14-p1, 3-Chloro-5-((5aS,6S,9R)-1-fluoro-12-(((2R,7aS)-2-fluorotetrahydro-1H-pyrrolizin-7a(5 H)-yl)methoxy)-5a,6,7,8,9,10-hexahydro-5H-4-oxa-3,10a,11,13,14-pentaaza-6,9-methanonaphtho[1,8-ab]heptalen-2-yl)-4-(trifluoromethyl)phenol] | 20.2 |  | 
2 | CCc1cccc2cc(O)cc(-c3nc4c5c(nc(OC[C@@]67CCCN6C[C@H](F)C7)nc5c3F)N3CC5CCC(N5)C3CO4)c12 (single isomer, unassigned) [Diastereomeric (1:1) mixture of 4-p1 and 4-p2] |  | 1.35 | 
3 | CCc1c(F)ccc2cc(O)cc(-c3nc4c5c(nc(OCC6(CN7C[C@@H]8C[C@@H]8[C@H]7CO)CC6)nc5c3F)N3C[C@H]5CC[C@H](N5)[C@H]3CO4)c12 [Example 20, 5 -Ethyl-6-fluoro-4-((5aS,6S,9R)-1-fluoro-12-((1-(((1S,2S,5R)-2-(hydroxymethyl)-3-azabicyclo[3.1.0]hex-3-yl)methyl)cyclopropyl)methoxy)-5a,6,7,8,9,10-hexahydro-5H-4-oxa-3,10a,11,13,14-pentaaza-6,9-methanonaphtho[1,8-ab]heptalen-2-yl)naphthalen-2-ol] | 14 |  | 8.8
4 | CCc1c(F)ccc2cc(O)cc(-c3nc4c5c(nc(OCC6(CN7C[C@H]8C[C@H]8[C@@H]7CO)CC6)nc5c3F)N3C[C@H]5CC[C@H](N5)[C@H]3CO4)c12 [Example 21, 5 -Ethyl-6-fluoro-4-((5aS,6S,9R)-1-fluoro-12-((1-(((1R,2R,5S)-2-(hydroxymethyl)-3-azabicyclo[3.1.0]hex-3-yl)methyl)cyclopropyl)methoxy)-5a,6,7,8,9,10-hexahydro-5H-4-oxa-3,10a,11,13,14-pentaaza-6,9-methanonaphtho[1,8-ab]heptalen-2-yl)naphthalen-2-ol] | 8.1 |  | 14.7
5 | CCc1c(F)ccc2cc(O)cc(-c3nc4c5c(nc(OCC6(CN7CC=C[C@H]7CO)CC6)nc5c3F)N3C[C@H]5CC[C@H](N5)[C@H]3CO4)c12 [Example 18, 5-Ethyl-6-fluoro-4-((5aS,6S,9R)-1-fluoro-12-((1-(((S)-2-(hydroxymethyl)-2,5-dihydro-1 H-pyrrol-1-yl)methyl)cyclopropyl)methoxy)-5a,6,7,8,9,10-hexahydro-5H-4-oxa-3,10a, 1 1,13,14-pentaaza-6,9-methanonaphtho[1,8-ab]heptalen-2-yl)naphthalen-2-ol] | 10.5 |  | 39.3
6 | CCc1c(F)ccc2cc(O)cc(-c3nc4c5c(nc(OC[C@@]67CCCN6C[C@H](F)C7)nc5c3F)N3C[C@@H]5CC[C@@H](N5)[C@@H]3CO4)c12 [Example 9-p2, 5-Ethyl-6-fluoro-4-((5aR,6R,9S)-1-fluoro-12-(((2R,7aS)-2-fluorotetrahydro-1H-pyrrolizin-7a(5H)-yl)methoxy)-5a,6,7,8,9,10-hexahydro-5H-4-oxa-3,10a,11,13,14-pentaaza-6,9-methanonaphtho[1,8-ab]heptalen-2-yl)naphthalen-2-ol] | 60.4 |  | 
7 | CCc1c(F)ccc2cc(O)cc(-c3nc4c5c(nc(OCC6(CN7CCC[C@H]7COC(=O)N(C)C)CC6)nc5c3F)N3C[C@H]5CC[C@H](N5)[C@H]3CO4)c12 [Example 25, ((S)-1-((1-((((5aS,6S,9R)-2-(8-ethyl-7-fluoro-3-hydroxynaphthalen-1-yl)-1-fluoro-5a,6,7,8,9,10-hexahydro-5H-4-oxa-3,10a,11,13,14-pentaaza-6,9-methanonaphtho[1,8-ab]heptalen-12-yl)oxy)methyl)cyclopropyl)methyl)pyrrolidin-2-yl)methyl dimethylcarbamate] | 23.5 |  | 48.5
8 | CCc1c(F)ccc2cc(O)cc(-c3nc4c5c(nc(OCC6(CN7CCC[C@@H]7CO)CC6)nc5c3F)N3C[C@H]5CC[C@H](N5)[C@H]3CO4)c12 [Example 15, 5-Ethyl-6-fluoro-4-((5aS,6S,9R)-1-fluoro-12-((1-(((R)-2-(hydroxymethyl)pyrrolidin-1-yl)methyl)cyclopropyl)methoxy)-5a,6,7,8,9,10-hexahydro-5H-4-oxa-3,10a,11,13,14-pentaaza-6,9-methanonaphtho[1,8-ab]heptalen-2-yl)naphthalen-2-ol] | 13.4 |  | 7.2
9 | CCc1cccc2cc(O)cc(-c3cc4c5c(nc(OC[C@@]67CCCN6C[C@H](F)C7)nc5c3F)N3CC5CCC(N5)C3CO4)c12 (single isomer, unassigned) [Diastereomeric (1:1) mixture of 11-p1 and 11-p2] |  | 15.6 | 62.5
10 | CCc1c(F)ccc2cc(O)cc(-c3nc4c5c(nc(OCC6(CN7C[C@@H]8C[C@@H]8[C@@H]7CO)CC6)nc5c3F)N3C[C@H]5CC[C@H](N5)[C@H]3CO4)c12 [Example 19, 5 -Ethyl-6-fluoro-4-((5aS,6S,9R)-1-fluoro-12-((1-(((1S,2R,5R)-2-(hydroxymethyl)-3-azabicyclo[3.1.0]hex-3-yl)methyl)cyclopropyl)methoxy)-5a,6,7,8,9,10-hexahydro-5H-4-oxa-3,10a,11,13,14-pentaaza-6,9-methanonaphtho[1,8-ab]heptalen-2-yl)naphthalen-2-ol] | 31.1 |  | 28.9
11 | CCc1c(F)ccc2cc(O)cc(-c3nc4c5c(nc(OCC6(CN7CC=C[C@@H]7CO)CC6)nc5c3F)N3C[C@H]5CC[C@H](N5)[C@H]3CO4)c12 [Example 16, 5-Ethyl-6-fluoro-4-((5aS,6S,9R)-1-fluoro-12-((1-(((R)-2-(hydroxymethyl)-2,5-dihydro-1 H-pyrrol-1-yl)methyl)cyclopropyl)methoxy)-5a,6,7,8,9,10-hexahydro-5H-4-oxa-3,10a, 1 1,13,14-pentaaza-6,9-methanonaphtho[1,8-ab]heptalen-2-yl)naphthalen-2-ol] | 11.6 |  | 10.1
12 | CCc1cccc2cc(O)cc(-c3nc4c5c(nc(OC[C@@]67CCCN6C[C@H](F)C7)nc5c3F)N3C[C@@H]5CC[C@@H](N5)[C@@H]3CO4)c12 [Example 4-p2, 5-Ethyl-4-((5aR,6R,9S)-1-fluoro-12-(((2R,7aS)-2-fluorotetrahydro-1H-pyrrolizin-7a(5H )-yl)methoxy)-5a,6,7,8,9,10-hexahydro-5H-4-oxa-3,10a,11,13,14-pentaaza-6,9-methanonaphtho[1,8-ab]heptalen-2-yl)naphthalen-2-ol] | 86.5 |  | 
13 | Oc1cc(-c2cc3nc(OC[C@@]45CCCN4C[C@H](F)C5)nc4c3c(n2)OCC2C3CCC(CN42)N3)c2c(F)cccc2c1 (single isomer, unassigned) [Diastereomeric (1:1) mixture of 1-p1 and 1-p2] |  | 94.1 | 
14 | CCc1cccc2cc(O)cc(-c3cc4nc(OC[C@@]56CCCN5C[C@H](F)C6)nc5c4c(n3)OCC3C4CCC(CN53)N4)c12 (mixture of isomers) [Diastereomeric (1:1) mixture of 2-p1 and 2-p2] | 6.6 |  | 19.9
